Experiments:
[1] = cited from earlier work; for Degree of Sweetness: sucrose per unit concentration Brix 1 defined as 1
[2] = biological target: T1, sweet taste receptor (T1R2/T1R3) (Homo sapiens, UniProt Q7RTX0+Q8TE23); assay: Sensory evaluation of remaining sweetness intensity of sweet substances with lactisole, relative to sucrose + lactisole; conditions: 100 ppm lactisole; solution 15-1 (12 w/v % sucrose + 100 ppm lactisole) = 100%; n=4
T1 sequence (Q8TE23 20-839): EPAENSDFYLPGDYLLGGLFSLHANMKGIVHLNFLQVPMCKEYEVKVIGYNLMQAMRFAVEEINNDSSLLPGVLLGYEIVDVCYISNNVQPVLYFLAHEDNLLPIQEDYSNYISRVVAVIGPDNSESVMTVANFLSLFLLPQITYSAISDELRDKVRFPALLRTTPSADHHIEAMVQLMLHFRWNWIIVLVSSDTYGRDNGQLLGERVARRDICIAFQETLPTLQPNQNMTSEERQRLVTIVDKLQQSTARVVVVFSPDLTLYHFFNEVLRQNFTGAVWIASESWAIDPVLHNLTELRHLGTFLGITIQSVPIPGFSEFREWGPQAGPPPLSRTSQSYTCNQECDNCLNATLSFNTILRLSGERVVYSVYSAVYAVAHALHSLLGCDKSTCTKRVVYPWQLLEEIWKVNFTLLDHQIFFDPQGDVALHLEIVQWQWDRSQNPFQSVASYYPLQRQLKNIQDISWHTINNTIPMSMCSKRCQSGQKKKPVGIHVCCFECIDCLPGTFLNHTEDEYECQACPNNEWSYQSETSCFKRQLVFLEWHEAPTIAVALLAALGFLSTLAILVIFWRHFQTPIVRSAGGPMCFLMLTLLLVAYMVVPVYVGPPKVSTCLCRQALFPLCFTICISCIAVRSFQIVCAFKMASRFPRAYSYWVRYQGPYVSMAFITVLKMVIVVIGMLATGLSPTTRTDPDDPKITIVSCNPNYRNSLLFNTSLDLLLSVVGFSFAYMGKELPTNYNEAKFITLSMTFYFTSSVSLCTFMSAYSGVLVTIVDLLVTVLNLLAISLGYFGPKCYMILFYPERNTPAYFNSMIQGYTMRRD
T1 sequence (Q7RTX0 21-852): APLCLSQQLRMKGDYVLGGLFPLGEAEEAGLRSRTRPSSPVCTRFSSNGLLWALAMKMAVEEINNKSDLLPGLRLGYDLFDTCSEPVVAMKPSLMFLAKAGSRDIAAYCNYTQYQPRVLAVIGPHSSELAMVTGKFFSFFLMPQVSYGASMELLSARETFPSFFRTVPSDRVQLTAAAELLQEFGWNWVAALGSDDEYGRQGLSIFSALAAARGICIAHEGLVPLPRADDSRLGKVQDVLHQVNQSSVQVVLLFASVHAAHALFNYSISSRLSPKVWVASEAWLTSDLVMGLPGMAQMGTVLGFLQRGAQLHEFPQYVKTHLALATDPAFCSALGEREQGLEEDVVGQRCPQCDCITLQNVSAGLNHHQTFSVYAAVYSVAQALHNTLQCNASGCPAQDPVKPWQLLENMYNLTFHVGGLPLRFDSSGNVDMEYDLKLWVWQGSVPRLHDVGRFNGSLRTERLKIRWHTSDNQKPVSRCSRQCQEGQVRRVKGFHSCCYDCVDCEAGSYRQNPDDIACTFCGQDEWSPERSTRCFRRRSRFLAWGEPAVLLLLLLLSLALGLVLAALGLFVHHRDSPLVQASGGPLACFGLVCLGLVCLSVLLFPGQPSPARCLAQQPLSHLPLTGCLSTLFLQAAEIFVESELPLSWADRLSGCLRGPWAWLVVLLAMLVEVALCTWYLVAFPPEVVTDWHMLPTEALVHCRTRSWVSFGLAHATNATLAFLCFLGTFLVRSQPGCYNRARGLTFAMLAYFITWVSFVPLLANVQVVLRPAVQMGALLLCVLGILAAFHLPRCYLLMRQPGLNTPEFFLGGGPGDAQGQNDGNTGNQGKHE

[3] = biological target: T1, sweet taste receptor (T1R2/T1R3); assay: Sensory evaluation (spit test, VAS scale) of sweetness intensity with lactisole, relative to lactisole-free solution; type: in vivo; set-up: The sweet taste receptor is expressed naturally on the cell surface of each taste cell; from tissue; host or cells: tongue (taste cells) of living human panelists; spit test; conditions: remaining sweetness with 100 ppm lactisole expressed as sucrose solution

SMILES	Relative sweetness intensity (%) [2]	sweetness level corresponding to sucrose solution [3]	Degree of Sweetness [1]	sweetness intensity relative to the sweetness intensity of sucrose ([1]; estimate used to design sample solutions)
O=C[C@H](O)[C@H](O)[C@H](O)[C@H](O)CO [Allose]	–	–	0.8	–
O=C(CO)[C@H](O)[C@H](O)[C@H](O)CO [D-allulose]	–	–	0.7	–
O=C(CO)[C@@H](O)[C@@H](O)[C@H](O)CO [D-tagatose]	≥ 50%	–	0.9	–
OC[C@H]1O[C@H](O[C@H]2[C@H](O)[C@@H](O)[C@H](O)O[C@@H]2CO)[C@H](O)[C@@H](O)[C@@H]1O [Maltose]	–	–	0.4	–

Second part, led by results:

Relative sweetness intensity (%) [2]	sweetness level corresponding to sucrose solution [3]	SMILES	Degree of Sweetness [1]	sweetness intensity relative to the sweetness intensity of sucrose ([1]; estimate used to design sample solutions)
–	0.144 w/v %	OC[C@H]1O[C@H](O[C@]2(CCl)O[C@H](CCl)[C@@H](O)[C@@H]2O)[C@H](O)[C@@H](O)[C@H]1Cl [sucralose]	–	600 times
–	2.0 w/v %	OC[C@H]1O[C@@](CO)(O[C@H]2O[C@H](CO)[C@@H](O)[C@H](O)[C@H]2O)[C@@H](O)[C@@H]1O [sucrose]	1	–

Reference: patent US20210084950A1, “SWEETENING COMPOSITION INDUCING SWEETNESS RESPONSE THROUGH MOLECULE OTHER THAN SWEET TASTE RECEPTOR (T1R2/T1R3)” (SUNTORY HOLDINGS LIMITED, priority 2018, published 2021)
